≈ marks a conversion by molar mass, not a printed value. Calls of active or inactive are those of the source. No cut-off for these calls is given here.
What was measured:
Klebsiella pneumoniae = assay: In vitro antibacterial activity against Klebsiella pneumoniae assessed as growth inhibition after 17 hrs by serial two-fold dilution technique; type: functional
[1] = system: Staphylococcus epidermidis; assay: In vitro antibacterial activity against benzylpenicillin-resistant Staphylococcus epidermidis assessed as growth inhibition after 17 hrs by serial two-fold dilution technique; type: functional
Streptococcus pyogenes [2] = assay: In vivo antibacterial activity against Streptococcus pyogenes infected in po dosed albino CD-1 mouse assessed as protection against bacterial infection by measuring host survival administered at 1 hr and 4 hrs after infection; type: functional
Escherichia coli [3] = assay: In vitro antibacterial activity against Escherichia coli assessed as growth inhibition after 17 hrs by serial two-fold dilution technique; type: functional
Pseudomonas aeruginosa = assay: In vitro antibacterial activity against cephalosporins-resistant Pseudomonas aeruginosa assessed as growth inhibition after 17 hrs by serial two-fold dilution technique; type: functional, organism-based
Streptococcus pneumoniae = assay: In vitro antibacterial activity against Streptococcus pneumoniae assessed as growth inhibition after 17 hrs by serial two-fold dilution technique; type: functional
Salmonella [4] = assay: In vitro antibacterial activity against Salmonella schottmuelleri assessed as growth inhibition after 17 hrs by serial two-fold dilution technique; type: functional
[5] = system: Streptococcus pasteurianus; assay: In vitro antibacterial activity against Streptococcus pasteurianus assessed as growth inhibition after 17 hrs by serial two-fold dilution technique; type: functional
Enterobacter cloacae = assay: In vitro antibacterial activity against cephalosporins-resistant Enterobacter cloacae assessed as growth inhibition after 17 hrs by serial two-fold dilution technique; type: functional, organism-based
Staphylococcus aureus [6] = assay: In vitro antibacterial activity against Staphylococcus aureus assessed as growth inhibition after 17 hrs by serial two-fold dilution technique; type: functional
Serratia marcescens = assay: In vitro antibacterial activity against cephalosporins-resistant Serratia marcescens assessed as growth inhibition after 17 hrs by serial two-fold dilution technique; type: functional, organism-based
Staphylococcus aureus [7] = assay: In vitro antibacterial activity against benzylpenicillin-resistant Staphylococcus aureus assessed as growth inhibition after 17 hrs by serial two-fold dilution technique; type: functional
Escherichia coli [8] = assay: In vivo antibacterial activity against Escherichia coli infected in sc dosed albino CD-1 mouse assessed as protection against bacterial infection by measuring host survival administered at 1 hr and 4 hrs after infection; type: functional
Streptococcus pyogenes [9] = assay: In vitro antibacterial activity against Streptococcus pyogenes assessed as growth inhibition after 17 hrs by serial two-fold dilution technique; type: functional
Providencia stuartii = assay: In vitro antibacterial activity against cephalosporins-resistant Providencia stuartii assessed as growth inhibition after 17 hrs by serial two-fold dilution technique; type: functional, organism-based
Klebsiella aerogenes = assay: In vitro antibacterial activity against cephalosporins-resistant Enterobacter aerogenes assessed as growth inhibition after 17 hrs by serial two-fold dilution technique; type: functional, organism-based
Proteus mirabilis = assay: In vitro antibacterial activity against Proteus mirabilis assessed as growth inhibition after 17 hrs by serial two-fold dilution technique; type: functional
Proteus vulgaris = assay: In vitro antibacterial activity against cephalosporins-resistant Proteus vulgaris assessed as growth inhibition after 17 hrs by serial two-fold dilution technique; type: functional, organism-based
Streptococcus pyogenes [10] = assay: In vivo antibacterial activity against Streptococcus pyogenes infected in sc dosed albino CD-1 mouse assessed as protection against bacterial infection by measuring host survival administered at 1 hr and 4 hrs after infection; type: functional
Salmonella [11] = assay: In vivo antibacterial activity against Salmonella schottmuelleri infected in sc dosed albino CD-1 mouse assessed as protection against bacterial infection by measuring host survival administered at 1 hr and 4 hrs after infection; type: functional
[12] = system: Streptococcus pasteurianus; assay: In vivo antibacterial activity against Streptococcus pasteurianus infected in sc dosed albino CD-1 mouse assessed as protection against bacterial infection by measuring host survival administered at 1 hr and 4 hrs after infection; type: functional

N[C@@H](C(=O)N[C@@H]1C(=O)N2C(C(=O)O)=C(Cn3ccc(=O)cc3)CS[C@H]12)c1ccccc1
MIC (Klebsiella pneumoniae): 12.5 µg/mL (≈ 28.4 µM) | MIC [1]: 25 µg/mL (≈ 56.8 µM) | ED50 (Streptococcus pyogenes [2]): > 8 mg/kg | MIC (Escherichia coli [3]): 12.5 µg/mL (≈ 28.4 µM) | growth inhibition (GI) (Pseudomonas aeruginosa): inactive | MIC (Streptococcus pneumoniae): 100 µg/mL (≈ 227 µM) | MIC (Salmonella [4]): 12.5 µg/mL (≈ 28.4 µM) | MIC [5]: 0.4 µg/mL (≈ 0.908 µM) | growth inhibition (GI) (Enterobacter cloacae): inactive | MIC (Staphylococcus aureus [6]): 3.1 µg/mL (≈ 7.04 µM) | growth inhibition (GI) (Serratia marcescens): inactive | MIC (Staphylococcus aureus [7]): 50 µg/mL (≈ 114 µM) | ED50 (Escherichia coli [8]): 4.6 mg/kg | MIC (Streptococcus pyogenes [9]): 1.6 µg/mL (≈ 3.63 µM) | growth inhibition (GI) (Providencia stuartii): inactive | growth inhibition (GI) (Klebsiella aerogenes): inactive | MIC (Proteus mirabilis): 50 µg/mL (≈ 114 µM) | growth inhibition (GI) (Proteus vulgaris): inactive | ED50 (Streptococcus pyogenes [10]): > 0.5 mg/kg | ED50 (Salmonella [11]): 5 mg/kg

CC1=C(C(=O)O)N2C(=O)[C@@H](NC(=O)[C@H](N)c3ccccc3)[C@H]2SC1 [CEPHALEXIN ANHYDROUS]
MIC (Klebsiella pneumoniae): 3.1 µg/mL (≈ 8.92 µM) | ED50 [12]: 38.7 mg/kg | MIC [1]: 12.5 µg/mL (≈ 36 µM) | ED50 (Streptococcus pyogenes [2]): 1.2 mg/kg | MIC (Escherichia coli [3]): 6.2 µg/mL (≈ 17.8 µM) | MIC (Streptococcus pneumoniae): > 100 µg/mL | MIC (Salmonella [4]): 6.2 µg/mL (≈ 17.8 µM) | MIC [5]: 1.6 µg/mL (≈ 4.61 µM) | MIC (Staphylococcus aureus [6]): 1.6 µg/mL (≈ 4.61 µM) | MIC (Staphylococcus aureus [7]): 6.2 µg/mL (≈ 17.8 µM) | ED50 (Escherichia coli [8]): 5.6 mg/kg | MIC (Streptococcus pyogenes [9]): 0.8 µg/mL (≈ 2.3 µM) | MIC (Proteus mirabilis): 25 µg/mL (≈ 72 µM) | ED50 (Streptococcus pyogenes [10]): 3.4 mg/kg | ED50 (Salmonella [11]): 8.2 mg/kg

N[C@@H](C(=O)N[C@@H]1C(=O)N2C(C(=O)O)=C(Cn3ccccc3=O)CS[C@H]12)c1ccccc1
MIC (Klebsiella pneumoniae): 6.2 µg/mL (≈ 14.1 µM) | ED50 [12]: 14 mg/kg | MIC [1]: 6.2 µg/mL (≈ 14.1 µM) | ED50 (Streptococcus pyogenes [2]): > 8 mg/kg | MIC (Escherichia coli [3]): 25 µg/mL (≈ 56.8 µM) | growth inhibition (GI) (Pseudomonas aeruginosa): inactive | MIC (Streptococcus pneumoniae): 50 µg/mL (≈ 114 µM) | MIC (Salmonella [4]): 12.5 µg/mL (≈ 28.4 µM) | MIC [5]: 0.2 µg/mL (≈ 0.454 µM) | growth inhibition (GI) (Enterobacter cloacae): inactive | MIC (Staphylococcus aureus [6]): 1.6 µg/mL (≈ 3.63 µM) | growth inhibition (GI) (Serratia marcescens): inactive | MIC (Staphylococcus aureus [7]): 6.2 µg/mL (≈ 14.1 µM) | ED50 (Escherichia coli [8]): 8.4 mg/kg | MIC (Streptococcus pyogenes [9]): 0.8 µg/mL (≈ 1.82 µM) | growth inhibition (GI) (Providencia stuartii): inactive | growth inhibition (GI) (Klebsiella aerogenes): inactive | MIC (Proteus mirabilis): > 100 µg/mL | growth inhibition (GI) (Proteus vulgaris): inactive | ED50 (Streptococcus pyogenes [10]): > 0.5 mg/kg | ED50 (Salmonella [11]): 10 mg/kg

From ChEMBL document CHEMBL3272157, “Cephalosporin derivatives with 2- and 4-pyridone groups at carbon-3” (1979)
